Literature values in patent US11622991B2, “Protocol for treatment of lupus nephritis” (Aurinia Pharmaceuticals Inc., priority 2017, dated 2023).

Tested on: lupus nephritis
Details: standard of care for LN; cited from earlier work

SMILES	partial remission, cases
O=P1(N(CCCl)CCCl)NCCCO1 (centres unmarked) [cyclophosphamide]	approximately 50%
COc1c(C)c2c(c(O)c1C/C=C(\C)CCC(=O)OCCN1CCOCC1)C(=O)OC2 [mycophenolate mofetil]	approximately 50%
